# Laboratory results taken from patent US6482856B1, “Method and composition for treating mammalian disease caused by inflammatory response” (Cellular Sciences, Inc., priority 1995, dated 2002).
# Where two headings read alike, the source gives them in different places.
# Assays:
# L1210 leukemia = conditions: advanced L1210 leukemia; cited from earlier work
# urinary calculi (stones) = conditions: rats fed calcium-oxalate lithogenic diet, versus control rats; cited from earlier work
# gastric mucosa [1] = conditions: rats; caused by acetylsalicylic acid; cited from earlier work
# cyanide intoxication = conditions: in vivo; cited from earlier work
# gastric mucosa [2] = conditions: guinea pigs; caused by acetylsalicylic acid; cited from earlier work
# [3] = system: bacterial and yeast systems; conditions: cited from earlier work
# [4] = system: acrylamide neuropathy of axons; conditions: in vivo; cited from earlier work
# [5] = system: emphysema and restrictive airway disease; assay: Inhalation of nebulized sodium pyruvate solution by a patient; lung capacity and lung function tests; type: in vivo, human
# Description: Subject: A person suffering from emphysema and restrictive airway disease was treated as described below for three (3) months.
# Treatment: The treatment was conducted as follows: Five (5) milliliters of five (5) millimolar sodium pyruvate solution is filter sterilized through a 0.2 micron filter. The sterile pyruvate solution is placed into a “Pulmo Aid” nebulizer manufactured by DeVilbiss Co., Somerset, Pa. 15501-0635. The sterile pyruvate solution is nebulized by the Pulmo Aid device fitted with a disposable nebulizer and inhaled by the patient. The patient inhales normally from the Pulmo Aid nebulizer until all of the solution has been nebulized and inhaled. This inhalation step typically takes about ten (10) to twenty (20) minutes.
# The patient is treated with this inhalation therapy periodically. Initially, treatments are about four (4) times a day at about six (6) hour intervals. Treatments were reduced to three (3) times a day at about eight (8) hour intervals after 30 days of therapy. Treatments were further reduced to once a day 60 DAYS AFTER ONSET OF TREATMENT. After ninety (90) days treatments are three to five times a week.
# sodium sulfide = conditions: in vivo; cited from earlier work
# [6] = twenty to thirty minutes after initial treatment
smiles,measurement,setting,value
CC(=O)C(=O)[O-].[Na+] [sodium pyruvate],abnormally deformed red blood cells,L1210 leukemia,restore abnormally deformed red blood cells to normal
same,urinary calculi (stones),urinary calculi (stones),fewer
same,"number of erosions, ulcers, and hemorrhages on the gastric mucosa",gastric mucosa [1],reduce
same,effect on cyanide intoxication,cyanide intoxication,antagonist
same,"number of erosions, ulcers, and hemorrhages on the gastric mucosa",gastric mucosa [2],reduce
same,growth,[3],enhance
same,hydrogen peroxide production,[3],inhibit
same,toxicity of reactive oxygen intermediates,[3],protect
same,"onset and development of functional, morphological, and biochemical measures of acrylamide neuropathy",[4],retard
same,MVV (maximum ventilatory volume),"[5]; After Two Months Treatment, Before: 19",25
same,DCO (diffusion of carbon monoxide),"[5]; After Two Months Treatment, Before: 27",39 MI/min/mm Hg
same,DSB (diffusion single breath),"[5]; After Two Months Treatment, Before: 42",52
same,ERV (expiratory reserve volume),"[5]; After Two Months Treatment, Before: 62",110
same,IC (inspiratory capacity),"[5]; After Two Months Treatment, Before: 64",69
same,O SAT (oxygen saturation),"[5]; After Two Months Treatment, Before: 91",95
same,SVC (slow vital capacity),"[5]; After Two Months Treatment, inhaled 5 ml of 5 millimolar solution, Before: 63",83
same,overall condition of the subject,[5]; after three (3) months treatment,marked improvement
same,Improved lung function,[5]; conclusion of the treatment,20%
same,"Increased exercise tolerance, tested and certified",[5]; conclusion of the treatment,close to that of a person without emphysema and restrictive airway disease
same,Mental attitude,[5]; conclusion of the treatment,greatly improved
same,Reactive airway disease,[5]; conclusion of the treatment,reduced to the point that routine use of inhalers is not needed
same,recurrence of decreased pulmonary functions,[5]; conclusion of the treatment,No recurrence
same,exercise tolerance,[5]; [6],increase
same,tidal volume,[5]; [6],increases
same,wheezing,[5]; [6],stops
same,Use of oxygen,[5]; when treatment started,eliminated immediately
same,overall results,[5]; within two (2) weeks,dramatic results
same,effect on lethal effects of sodium sulfide,sodium sulfide,protect
